On to `CC(C)Oc1ccc(NC(=N)c2cccs2)cc1CN1CCCC1` [Example 21, N-[4-Isopropoxy-3-(1-pyrrolidinylmethyl)phenyl]-2-thiophenecarboximidamide], for which the melting point lay in the range of 138 to 140 °C.

(Values after patent US20020137736A1, “Novel compounds” (priority 1999, published 2002).)
